Tested on: guinea-pig urinary bladder (GPB) cells
Experiment: Membrane hyperpolarization (MHP) assay, DiBAC(4)3 dye, FLIPR
Format: cell-based
Settings: Cavia porcellus; for Emax: maximal steady-state hyperpolarization in GPB cells, normalized to response with 10 μM P1075 (=100%); for EC50: membrane hyperpolarization in GPB cells, concentration eliciting 50% of the maximal response of the test sample
Method: Compounds were evaluated for potassium channel opening activity using primary cultured guinea-pig urinary bladder (GPB) cells.
For the preparation of urinary bladder smooth muscle cells, urinary bladders were removed from male guinea-pigs (Hartley, Charles River, Wilmington, Mass.) weighing 300-400 g and placed in ice-cold Ca^2+-free Krebs solution (Composition, mM: KCl, 2.7; KH2PO4, 1.5; NaCl, 75; Na2HPO4, 9.6; Na2HPO4.7H2O, 8; MgSO4, 2; glucose, 5; HEPES, 10; pH 7.4). Cells were isolated by enzymatic dissociation as previously described with minor modifications in (Klockner, U. and Isenberg, G., Pflugers Arch. 1985, 405, 329-339), hereby incorporated by reference. The bladder was cut into small sections and incubated in 5 mL of the Kreb's solution containing 1 mg/mL collagenase (Sigma, St. Louis, Mo.) and 0.2 mg/mL pronase (Calbiochem, La Jolla, Calif.) with continuous stirring in a cell incubator for 30 minutes. The mixture was then centrifuged at 1300×g for 5 minutes, and the pellet resuspended in Dulbecco's PBS (GIBCO, Gaithersburg, Md.) and recentrifuged to remove residual enzyme. The cell pellet was resuspended in 5 mL growth media (composition: Dulbecco's modified Eagle's medium supplemented with 10% fetal bovine serum, 100 units/mL penicillin, 100 units/mL streptomycin and […] amphotericin B) and further dissociated by pipetting the suspension through a flame-polished Pasteur pipette and passing it through a polypropylene mesh membrane (Spectrum, Houston, Tex.). The cell density was adjusted to 100,000 cells/mL by resuspension in growth media. Cells were plated in clear-bottomed black 96-well plates (Packard) for membrane potential studies at a density of 20,000 cells/well and maintained in a cell incubator with 90% air: 10% CO2 until confluent. Cells were confirmed to be of smooth muscle type by cytoskeletal staining using a monoclonal mouse anti human-α-smooth muscle actin (Biomeda, Foster City, Calif.).
Functional activity at potassium channels was measured by evaluating changes in membrane potential using the bis-oxonol dye DiBAC(4)3 (Molecular Probes) in a 96-well cell-based kinetic assay system, Fluorescent Imaging Plate Reader (FLIPR) (K. S. Schroeder et al., J. Biomed. Screen., v. 1 pp. 7581 (1996)), hereby incorporated by reference. DiBAC(4) is an anionic potentiometric probe which partitions between cells and extracellular solution in a membrane potential-dependent manner. With increasing membrane potential (for example, K^+ depolarization), the probe further partitions into the cell; this is measured as an increase in fluorescence due to dye interaction with intracellular lipids and proteins. Conversely, decreasing membrane potential (hyperpolarization by potassium channel openers) evokes a decrease in fluorescence.
Confluent guinea-pig urinary bladder cells cultured in black clear-bottomed 96-well plates were rinsed twice with […] assay buffer (composition, mM: HEPES, 20; NaCl, 120; KCl, 2; CaCl2, 2; MgCl2, 1; glucose, 5; pH 7.4 at 25° C.) containing 5 μM DiBAC(4) and incubated with […] of the buffer in a cell incubator for 30 minutes at 37° C. to ensure dye distribution across the membrane. After recording the baseline fluorescence for 5 minutes, the reference or test compounds, prepared at 10 times the concentration in the assay buffer, were added directly to the wells. Changes in fluorescence were monitored for an additional 25 minutes. Hyperpolarization responses were corrected for any background noise and were normalized to the response observed with 10 μM of the reference compound P1075, N″-cyano-N-(tert-pentyl)-N′-(3-pyridinyl)guanidine, which was assigned as 100%. P1075 is a potent opener of smooth muscle KATP channels (Quast et al., Mol. Pharmacol., v. 43 pp. 474-481 (1993)) and was prepared using the procedures described in (Manley, J. Med. Chem. (1992) 35, 2327-2340), hereby incorporated by reference. […]

| EC50 | SMILES | Emax |
| --- | --- | --- |
| 0.05 µM | Cn1[nH]c(=O)c2c1NC1=C(C(=O)COC1)C2c1ccc(F)c(Br)c1 (stereo not drawn) [Example 26, 4-(3-bromo-4-fluorophenyl)-1-methyl-1,2,4,9-tetrahydropyrano[3,4-b]pyrazolo[4,3-e]pyridine-3,5(6H,8H)-dione] | 99% |
| 0.76 µM | Cn1[nH]c(=O)c2c1NC1=C(C(=O)OCC1)C2c1ccc(F)c(Br)c1 (stereo not drawn) [Example 31, 4-(3-bromo-4-fluorophenyl)-1-methyl-1,2,4,7,8,9-hexahydropyrano[4,3-b]pyrazolo[4,3-e]pyridine-3,5-dione] | 96% |
| 0.52 µM | Cn1[nH]c(=O)c2c1NC1=C(C(=O)OC1)C2c1ccc(F)c(Br)c1 (stereo not drawn) [Example 32, 4-(3-bromo-4-fluorophenyl)-1-methyl-4,8-dihydro-1H-furo[3,4-b]pyrazolo[4,3-e]pyridine-3,5(2H,7H)-dione] | 73% |
